Data reported in article PMC6100113, “Involvement of CYP4F2 in the Metabolism of a Novel Monophosphate Ester Prodrug of Gemcitabine and Its Interaction Potential In Vitro” (Molecules : A Journal of Synthetic Chemistry and Natural …, 2018).

B1: CYP4F2 (Homo sapiens) (protein)
chain: SLSWLGLWPVAASPWLLLLLVGASWLLAHVLAWTYAFYDNCRRLRCFPQPPRRNWFWGHQGMVNPTEEGMRVLTQLVATYPQGFKVWMGPISPLLSLCHPDIIRSVINASAAIAPKDKFFYSFLEPWLGDGLLLSAGDKWSRHRRMLTPAFHFNILKPYMKIFNESVNIMHAKWQLLASEGSACLDMFEHISLMTLDSLQKCVFSFDSHCQEKPSEYIAAILELSALVSKRHHEILLHIDFLYYLTPDGQRFRRACRLVHDFTDAVIQERRRTLPSQGVDDFLQAKAKSKTLDFIDVLLLSKDEDGKKLSDEDIRAEADTFMFEGHDTTASGLSWVLYHLAKHPEYQERCRQEVQELLKDREPKEIEWDDLAHLPFLTMCMKESLRLHPPVPVISRHVTQDIVLPDGRVIPKGIICLISVFGTHHNPAVWPDPEVYDPFRFDPENIKERSPLAFIPFSAGPRNCIGQTFAMAEMKVVLALTLLRFRVLPDHTEPRRKPELVLRAEGGLWLRVEPLS
notes: purchased Corning Gentest

Assays:
[1] = Metabolite identification by UPLC/Triple TOF MS in human liver microsomes; format: in vitro ADME; parameters: key: √: metabolites were detected by high-resolution mass spectrometry; conditions: Compound-3 10 μM, 1 mg/mL microsomes, NADPH, 60 min, HRMS
Description: (§1) For metabolite identification, a higher concentration of Compound-3 (10 μM) was incubated with liver microsomes (1 mg/mL) in the presence of NADPH (1 mM) and primary human hepatocytes at a density of 1 × 10^6 cell/mL. Samples were collected at 0 min and 60 min with the addition of ice-cold acetonitrile. After vortexing and centrifugation, the supernatant was transferred into a new tube and evaporated to dryness. The samples were then reconstituted in 100 μL of water and methanol (v/v, 9:1). An aliquot of 10 μL of reconstituted solution was injected into UPLC/Triple TOF 5600^+ MS for metabolite identification.
(§2) Identification of Compound-3 metabolites was carried out using Acquity UPLC/Triple TOF 5600^+ system. Chromatographic separation for Compound-3 and its metabolites were achieved by an Acquity UPLC HSS T3 column (100 × 2.1 mm i.d., […]; Waters Corp.) maintained at 40 °C. The mobile phase was a mixture of 0.02% formic acid in 5 mM ammonium acetate (A) and methanol (B). The gradient elution was started from 2% B and maintained for 4 min, then increased linearly to 75% B over the next 4 min and maintained for 8 min. […] The flow rate was 0.4 mL/min and the eluent was monitored by UV detection at 280 nm.
(§3) For mass detection, a Triple TOF 5600^+ mass spectrometer (AB Sciex, Framingham, MA, USA) was operated in positive ion electrospray (ES-positive) mode with the source temperature at 500 °C and scan range from m/z 100 to 1000 Da. Other parameters were set as follows: ion spray voltage, 5500 V; decluttering potential, 80 V; curtain gas, 40 psi; ion source gas 1, 55 psi; and ion source gas 2, 50 psi. Collision energies of 25 and 65 eV were used for TOF MS and product ion scans, respectively, and a collision energy spread of 20 was used in the MS/MS analysis. Information-dependent acquisition (IDA), together with real-time multiple mass defect filter, was used to trigger acquisition of MS/MS spectra.

[2] = Metabolite identification by UPLC/Triple TOF MS in rat liver microsomes; format: in vitro ADME; parameters: key: √: metabolites were detected by high-resolution mass spectrometry; conditions: Compound-3 10 μM, 1 mg/mL microsomes, NADPH, 60 min, HRMS
Description: as §1, §2, §3

[3] = Metabolite identification by UPLC/Triple TOF MS in human intestinal microsomes; format: in vitro ADME; parameters: key: √: metabolites were detected by high-resolution mass spectrometry; conditions: Compound-3 10 μM, NADPH, 60 min, HRMS
Description: as §1, §2, §3

[4] = Metabolite identification by UPLC/Triple TOF MS in rat intestinal microsomes; format: in vitro ADME; parameters: key: √: metabolites were detected by high-resolution mass spectrometry; conditions: Compound-3 10 μM, NADPH, 60 min, HRMS
[5] = Metabolite identification by UPLC/Triple TOF MS in human hepatocytes; format: in vitro ADME; parameters: key: √: metabolites were detected by high-resolution mass spectrometry; conditions: Compound-3 10 μM, 1 × 10^6 cell/mL, 60 min, HRMS
Description: as §1, §2, §3

[6] = target: T1, CYP4F2 (Homo sapiens, UniProt P78329); assay: Reaction phenotyping with recombinant CYP4F2; format: in vitro ADME; conditions: Compound-3 1 μM with recombinant CYP4F2 50 nM, NADPH, 37 °C (Figure S2)
T1 construct: purchased Corning Gentest
T1 sequence (P78329 5-520): B1 chain
Description: Compound-3 was incubated separately with human cDNA-expressed cytochrome P450s (CYP1A2, CYP2B6, CYP2C8, CYP2C9, CYP2C19, CYP2D6, CYP3A4, CYP4A11, CYP4F2 and CYP4F3). The incubation mixtures contained individual CYP isoenzymes (50 nM), potassium phosphate buffer (100 mM, pH 7.4), NADPH (1 mM), and Compound-3 (1 µM). The final volume of the incubation mixture was 50 µL. Before the start of the incubation, reaction mixtures were warmed up at 37 °C for 10 min. The reaction was initiated with the addition of NADPH and the incubations were performed at 37 °C in a water bath. […] Control samples without NADPH but substrates were included. The samples were then centrifuged and aliquots of 10 μL of the supernatants were transferred onto LC-MS/MS for the analysis of Compound-3 and M4 (carboxylic acid) levels.
The following are available online. Figure S1. Gemcitabine Formation from Compound-3 Hydrolysis as a function of alkaline phosphatase protein concentrations. Compound-3 (1 μM) was incubated with alkaline phosphatase concentrations ranging from 0.01–0.2 mg/mL at 37 °C (n = 3). Figure S2. Metabolites of Compound-3 in human recombinant CYP4F2. Compound-3 (1 μM) was incubated with human recombinant CYP4F2 (50 nM) in the presence of NADPH at 37 °C (n = 3).

[7] = tested on: alkaline phosphatase; assay: Hydrolysis of Compound-3 by alkaline phosphatase (gemcitabine formation); format: in vitro ADME; parameters: key to detected in matrix ALP: √: metabolites were detected by high-resolution mass spectrometry; conditions: incubation of Compound-3 with alkaline phosphatase, HRMS
Description: Compound-3 was incubated with alkaline phosphatase, and the linearity of gemcitabine formation as a function of time and protein concentration was first examined. The reaction mixtures consisted of alkaline phosphatase, 100 mM phosphate buffer (pH 7.4) and Compound-3 (10 μM). The final volume of the incubation mixture was 200 μL. The mixture was warmed up at 37 °C for 2 min prior to the initiation of the reaction with the addition of the enzyme. At specified time points, 25 μL of the incubation mixtures was added to 100 μL cold acetonitrile containing the internal standard to terminate the reaction. Levels of gemcitabine were determined by LC-MS/MS. […] Compound-3 was tested at concentrations ranging from 0 to 200 μM. Kinetic parameters of Compound-3 in alkaline phosphatase were calculated using GraphPad Prism (Version 6.0, GraphPad Software Inc., San Diego, CA) and nonlinear regression analysis. Equation used was as the following (the Michaelis-Menten equation):V = (Vmax × [S])/(Km + [S])(1) where V is the rate of metabolite formation, Vmax is the maximum velocity, Km is the Michaelis constant (substrate concentration at 0.5 Vmax), and [S] is the substrate concentration.

[8] = tested on: Compound-3 metabolism in human liver microsomes; assay: Inhibition of Compound-3 metabolism in HLM by selective chemical inhibitors of CYP isozymes; format: in vitro ADME; conditions: HLM 0.2 mg/mL, 1 μM Compound-3; HET-0016 1 µM, ketoconazole 1 µM, quercetin 10 µM, other inhibitors at the concentrations of b45
Description: Incubation contained 0.2 mg/mL human liver microsomes, 100 mM phosphate buffer (pH 7.4), 1 mM NADPH, 1 μM Compound-3, and inhibitors at specified concentrations. Compound-3 remaining was calculated based on concentrations after incubation in the presence or absence of respective inhibitors.

[9] = target: T1, CYP4F2; assay: CYP4F2-mediated drug interaction (inhibition of CYP4F2); format: in vitro ADME; conditions: substrate Compound-3 1 μM, CYP4F2 10 nM, 10 min, M4 formation; read-out: IC50, inhibition of CYP4F2 mediated metabolism of Compound-3
Description: CYP4F2-mediated drug interactions were examined in two separate setting: pafuramidine as the substrate and Compound-3 as the inhibitor; and Compound-3 as the substrate and pafuramidine as the inhibitor. The reaction system contained 10 nM CYP4F2, 100 mM phosphate buffer (pH 7.4), 1 mM NADPH, and substrate (pafuramidine 1.5 μM or Compound-3 1 μM). Inhibitor (Compound-3 or pafuramidine) concentrations ranged from 0 to 10,000 nM. The incubation time was 5 min for pafuramidine and 10 min for Compound-3. Incubation temperature was 37 °C. LC-MS/MS analysis was performed as described above for the levels of DB775 or M4 (carboxylic acid metabolite of Compound-3).

[10] = substrate: CCCCCCCCCCCCCCCCCCOCCOP(=O)(O)OCC1OC(n2ccc(N)nc2=O)C(F)(F)C1O; assay: Formation kinetics of M4 (carboxylic acid) from Compound-3 by CYP4F2; format: in vitro ADME, human; conditions: other: CYP4F2 10 nM, 10 min, substrate inhibition model, estimated; pH 7.4; 37.0 °C
Description: To investigate the formation kinetics of carboxylic acid metabolite (M4) from Compound-3, varying concentrations of Compound-3 (0–10 µM) were incubated with 10 nM CYP4F2 and 1 mM NADPH in 100 mM phosphate buffer (pH 7.4). The reactions were carried at 37 °C for 10 min and terminated with the addition of ice-cold acetonitrile containing the internal standard. Samples were then centrifuged, and aliquots of 10 μL of the supernatants were analyzed by LC-MS/MS for M4 levels.
Kinetic parameters of Compound-3 in recombinant human CYP4F2 were calculated using Enzyme Kinetics Modules of SigmaPlot (Version 14.0, Systat Software, San Jose, CA, USA). An uncompetitive substrate inhibition equation was also used:V = (Vmax × [S])/{Km + [S] × (1 + [S]/Ki)}(2) where Ki is the disassociation constant describing the inhibitor-enzyme interaction.

Molecule | detected in matrix HLM [1] | detected in matrix HIM [3] | detected in matrix RIM [4] | detected in matrix Human Hepatocytes [5] | incubation time at which metabolite formation peaked [6] | other results
Nc1ccn(C2OC(COP(=O)(O)OCCOCCCCCCCCCCCCCCCCCC(=O)O)C(O)C2(F)F)c(=O)n1 (stereo not shown) [Compound M4] | √ | √ | √ | √ | 60 min | detected in matrix RLM [2]: √
Nc1ccn(C2OC(COP(=O)(O)OCCOCCCCCCCCCCCCCCCCCC=O)C(O)C2(F)F)c(=O)n1 (stereo not shown) [Compound M2] | √ | √ | √ | √ | 5 min | 
Nc1ccn([C@@H]2O[C@H](CO)[C@@H](O)C2(F)F)c(=O)n1 [Gemcitabine, 2′,2′-difluorodeoxycytidine] |  |  |  |  |  | detected in matrix ALP [7]: √
O=c1c(O)c(-c2ccc(O)c(O)c2)oc2cc(O)cc(O)c12 [quercetin] |  |  |  |  |  | inhibition of Compound-3 metabolism in HLM [8]: moderate inhibition
CONC(=N)c1ccc(-c2ccc(-c3ccc(C(=N)NOC)cc3)o2)cc1 [pafuramidine, reference compound] |  |  |  |  |  | IC50 [9]: 240 nM
CC(=O)N1CCN(c2ccc(OCC3COC(Cn4ccnc4)(c4ccc(Cl)cc4Cl)O3)cc2)CC1 (stereo not shown) [ketoconazole] |  |  |  |  |  | inhibition of Compound-3 metabolism in HLM [8]: moderate inhibition
Nc1ccn(C2OC(COP(=O)(O)OCCOCCCCCCCCCCCCCCCCCCO)C(O)C2(F)F)c(=O)n1 (stereo not shown) [Compound M3] | √ | √ | √ | √ | 5 min | detected in matrix RLM [2]: √
B1 |  |  |  |  |  | Km [10]: 0.69 µM
